Reference: patent US20180235213A1, “PLANT HORMONE APPLICATION” (The State of Israel Ministry of Agriculture & Rural …, priority 2015, published 2018)

Columns and labels:
[1] = tested on: Picual olives; assay: Application of strigolactone analogs by irrigation to olive seedlings; type: in vivo, Olea europaea L.; details: for number of growing buds / lateral branches: irrigation to roots twice a week for 6 weeks, 0.03 and 0.3 μM, vs control
Procedure: The effect of application of various analogues of strigolactone (SL) on olives, given to roots by irrigation was examined. Three different SL analogs; […] The seedlings were rooted from cuttings and hardened, and were about 6 months old at the time of the experiment. Growth soil mixture was used as in the nursery. Each strigolactone analog was dissolved in acetone to give a 5.6 mM solution. This solution was then further diluted with distilled water to 0.03 and 0.3 μM. The diluted solution was injected to the roots twice a week for 6 weeks, and subsequently all the growing buds were counted. For each treatment (treated and control groups) 10 plants were measured. Experiments were repeated three times.

[2] = tested on: Orobanche aegyptiaca seeds; assay: Orobanche Germination Assay (biological activity after stress treatments); type: in vivo
Procedure: The implementation of the strigolactone analogs necessitates a degree of material stability, to ensure their activity on the plant under various growth conditions. Accordingly, the stability of the strigolactone analog GR24 was tested under different environmental conditions. GR24 in acetone stock solution of 5.6 mM was diluted in double distilled water (DDW) or HPC pre-made gel to a concentration of 0.56 μM in eppendorf tubes and was subjected to the following treatments:
GR24 solutions of 0.56 μM, diluted either in DDW or in HPC pre-made gel in eppendorf tubes were incubated in a dry block heater at temperatures of 4° C., 20° C., 40° C., 60° C. digitally set for periods of 3 h, 1 d, 2 d, 4 d, 5 d and 7 d under ambient light.
GR24 solutions of 0.56 μM, diluted either in DDW or in HPC pre-made gel, each in quartz tubes (15 replicates for each treatment) were exposed to UV radiation of λ=312 nm under UV lamp of 600 or 857 μE intensity for periods of 15 min, 30 min or 18 h.
Biological activity was determined by Orobanche Germination Assay: Approximately 30 to 50 seeds of Orobanche aegyptiaca were spread on a glass fiber filter paper disk (9-mm diameter) and put into sterile petri dishes (9-cm diameter) lined with Whatman filter paper wetted with 3 mL of demineralized water. Petri dishes were sealed with parafilm and incubated at 27° C. for preconditioning. After one week of preconditioning period, the glass fiber filter paper disks with Orobanche seeds were removed from the petri dish and dried for 20 min to remove surplus moisture. The disks were transferred to another petri dish within a filter paper ring (outer diameter of 9 cm; inner diameter of 8 cm) wetted with 0.9 mL of water, which maintained a moist environment during the germination bioassay. Forty microliters of the GR24 test solutions were added to the disks. Untreated GR24 at a 0.56 μM concentration was used as a positive control, water or HPC pre-made gel as negative controls. Germination percent was calculated using the counter cell analysis of the IMAGEJ (http://www.//rsbweb.nih.gov/ij/) software. Germinated seeds were distinguished from non-germinated seeds according to the seedling radicles, which are a few millimeters long and visible under a stereomicroscope (Leica MZFLIII, Leica Microsystems, GmbH).
For each of the GR24 treatments fifteen replicates with 30-40 seeds were tested per treatment with 40 μl of 0.56 μM GR24 test solutions pre-treated as described above. The experiment was repeated three times (n=450 seeds).
Next, GR24 was stabilized with Hydroxypropyl Cellulose (HPC), which is a […] medium. Granular HPC [Sigma-Aldrich Israel Ltd., CAS-No. 9004-64-2] […]

[3] = Mass spectrometry analysis of GR24 test solutions (molecular stability); type: physicochemical
Procedure: Mass spectrometry (MS) analysis was performed to GR24 test solutions using the Orbitrap XL (Thermo Fisher Scientific). The samples were injected directly using direct spray injection probe, in 50% acetonitrile solution and at […] flow rate. A full scan was acquired to detect the GR24 peaks, at 60,000 resolution, Maximum ion fill time settings were 300 ms for the high resolution full scan in the Orbitrap analyzer. The spectra are sum of 10 sec acquisition. Results observed by Xcalibur© software of Thermo Fisher Scientific Inc. version 2.0.7. were analyzed manually.
Next, GR24 was stabilized with Hydroxypropyl Cellulose (HPC), which is a […] medium. Granular HPC [Sigma-Aldrich Israel Ltd., CAS-No. 9004-64-2] (1 g) was ground to a fine powder using a mortar and pestle, mixed with sterile distilled water to make about 10 mL of gel, and then allowed to stand for 1 day for complete dissolution at room temperature. Stability of GR24 was tested by both biological activity of the strigolactone and by assessing the molecule using LC-MS.

[4] = tested on: olive seedling; assay: Application to olive seedling stem under greenhouse conditions (parafilm, flexible or rigid tubes); details: in vivo
Procedure: EGO10 either with PVAc, or HPC+glycerin were applied on olive seedling stem by the use of parafilm cover as the apparatus, under greenhouse conditions (FIG. 15). Greenhouse conditions include controlled room temperature of 25° C. In each experiment, 10 plants were used for each treatment. The substances were applied on the stem by a spatula and covered with parafilm.
In attempt to improve the performance of the apparatus, different substances and different cover were used. Four formulations were developed and tested. These formulations are based on polysaccharide-sorbent-humidifier substances while the main difference between them is the viscosity of the final product and the ability to retain and release of the active ingredient (EGO 10). […] The cover consisted of a flexible plastic tube that was cut (FIG. 16A), placed on the seedling stem (FIG. 16B) and wrapped with transparent plaster (FIG. 16C). The plastic tubes were filled with the experimental material (FIG. 16D). Moist cotton was placed on both sides of the tubes to minimize water evaporation (FIG. 16E and FIG. 16F). Bud outgrowth was measured for 30 days.
Rigid plastic tubes were tested in order to determine their efficiency as a delivery device for application of the hormone formulations to plants. At first, eppendorf tubes served as prototype. The tubes ware cut from top to bottom and placed on the stem of seedlings. Each tube was sealed with a small moist cotton at the bottom, filled with 1 ml of the examined material and finally covered with transparent plastic tape (FIGS. 17A-17E). The tubes were filled with (HPC+glycerin), or PVAc and EGO10 In each experiment, 10 plants were used for each treatment. Greenhouse conditions include controlled room temperature of 25° C.
EGO10 (10 μM) or acetone control together with HPC+glycerin or PVAc were applied on the stem of olive cuttings by the use of rigid plastic tubes as described in Example 10 above.
Bud outgrowth of olive cuttings was measured until day 30.

Molecule	number of growing buds / lateral branches [1]	concentration at which the effect was most prominent ([1]; irrigation twice a week, 0.03 and 0.3 μM tested) [µM]	biological activity (Orobanche germination) after stress ([2]; 0.56 μM, long term exposure (over 5 days) to temperatures above 40° C., acidic pH solutions, UV irradiation)	biological activity in HPC medium ([2]; GR24 in HPC pre-made gel)	structure of the molecule in HPC medium (LC-MS) ([3]; GR24 in HPC, under the examination conditions)	molecular stability (MS) ([3]; long term exposure (over 5 days) to temperatures above 40° C., acidic pH solutions, UV irradiation)	seedling outgrowth with medium plus acetone control [4]
CC1=C[C@H](O/C=C2/C(=O)O[C@@H]3c4ccccc4C[C@H]23)OC1=O (relative stereo) [GR24, (3aR*,8bS*,E)-3-(((R*)-4-methyl-5-oxo-2,5-dihydrofuran-2-yloxy)-methylene)-3,3a,4,8b-tetrahydro-2H-indeno[1,2-b]furan-2-one, reference compound]	significant reduction in number of lateral branches	0.03	loses biological activity	stabilized GR24 by increasing its biological activity	remained intact	molecularly degrading	–
CC1=CC(O/C=C2/C(=O)c3c(c4cc(-c5scc6c5OCCO6)ccc4n3C)C2C)OC1=O (centres unmarked) [ST362, (2E)-2-[(2,5-dihydro-4-methyl-5-oxofuran-2-yloxy)methylene]-1,2-dihydro-7-(2,3-dihydrothieno[3,4-b][1,4]dioxin-7-yl)-1,4-dimethyl-cyclopenta[b]indole-3-(4H)-one]	similar, albeit less potent effect	–	–	–	–	–	–
polyvinyl acetate [PVAc]	–	–	–	–	–	–	led to inhibition of seedling outgrowth
